Where two headings read alike, the source gives them in different places.
Assays:
Test in all cases: biochemical
Assay type in all cases: binding
CRKL = biological target: T1, CRKL (Homo sapiens, UniProt P46109); conditions: read-out: percent of DMSO vehicle control; for remaining activity at 10 µM: primary screen
T1 construct: the DNA-tagged SH2 domain concentrations used in this study were <0.1 nM; made in house; host or cells: HEK293 (transient transfection; unpurified extract)

PIK3R3(SH2dom.N-term.) = biological target: T2, PIK3R3(SH2dom.N-term.) (Homo sapiens, UniProt Q92569); conditions: read-out: percent of DMSO vehicle control
T2 construct: SH2dom.N-term. denotes SH2 domain closest to N-terminus of protein; made in house; host or cells: HEK293 (transient transfection, unpurified extract)

SOCS6 = biological target: T3, SOCS6 (Homo sapiens, UniProt O14544); conditions: read-out: percent of DMSO vehicle control
T3 construct: made in house; host or cells: HEK293 (transient transfection), unpurified extract
T3 sequence (O14544 1-535): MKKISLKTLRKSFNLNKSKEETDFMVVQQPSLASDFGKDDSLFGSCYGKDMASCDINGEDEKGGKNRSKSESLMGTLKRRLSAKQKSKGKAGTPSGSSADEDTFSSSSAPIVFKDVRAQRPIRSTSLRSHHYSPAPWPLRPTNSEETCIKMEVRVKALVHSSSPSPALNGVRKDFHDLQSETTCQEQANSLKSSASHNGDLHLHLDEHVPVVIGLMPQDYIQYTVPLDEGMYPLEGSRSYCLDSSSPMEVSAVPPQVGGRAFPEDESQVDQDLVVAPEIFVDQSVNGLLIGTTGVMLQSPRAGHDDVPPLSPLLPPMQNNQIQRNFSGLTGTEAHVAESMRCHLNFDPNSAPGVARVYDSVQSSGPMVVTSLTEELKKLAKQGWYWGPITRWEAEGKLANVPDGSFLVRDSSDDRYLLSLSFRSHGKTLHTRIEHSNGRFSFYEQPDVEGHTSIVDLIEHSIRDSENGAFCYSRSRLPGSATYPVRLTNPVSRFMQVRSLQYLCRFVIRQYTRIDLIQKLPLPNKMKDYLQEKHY

SOCS2 = biological target: T4, SOCS2 (Homo sapiens, UniProt O14508); conditions: for remaining activity at 10 µM: read-out: percent of DMSO vehicle control; for Kd: dose-response, read-out: KD
T4 construct: made in house; host or cells: HEK293 (transient transfection), unpurified extract
T4 sequence (O14508 1-198): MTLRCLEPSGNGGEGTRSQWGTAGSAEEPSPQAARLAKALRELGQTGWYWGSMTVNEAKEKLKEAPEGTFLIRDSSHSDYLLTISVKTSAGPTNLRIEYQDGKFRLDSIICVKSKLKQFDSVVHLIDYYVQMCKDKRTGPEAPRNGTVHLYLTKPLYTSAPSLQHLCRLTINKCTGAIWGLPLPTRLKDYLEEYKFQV

GRB14 = biological target: T5, GRB14 (Homo sapiens, UniProt Q14449); conditions: for remaining activity at 10 µM: read-out: percent of DMSO vehicle control
T5 construct: the DNA-tagged SH2 domain concentrations used in this study were <0.1 nM; made in house; host or cells: HEK293 (transient transfection; unpurified extract)
T5 sequence (Q14449 439-535 limits assumed): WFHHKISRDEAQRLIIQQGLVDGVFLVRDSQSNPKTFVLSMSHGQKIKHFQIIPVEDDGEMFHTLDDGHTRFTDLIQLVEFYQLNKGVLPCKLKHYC

ABL2 = biological target: T6, ABL2 (Homo sapiens, UniProt P42684); conditions: read-out: percent of DMSO vehicle control; for remaining activity at 10 µM: primary screen
T6 construct: the DNA-tagged SH2 domain concentrations used in this study were <0.1 nM; made in house; host or cells: HEK293 (transient transfection; unpurified extract)
T6 sequence (P42684 173-263 limits assumed): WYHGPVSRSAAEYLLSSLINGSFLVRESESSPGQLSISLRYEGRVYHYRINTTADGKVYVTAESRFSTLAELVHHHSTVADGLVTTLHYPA

BLK = biological target: T7, BLK (Homo sapiens, UniProt P51451); conditions: read-out: percent of DMSO vehicle control
T7 construct: the DNA-tagged SH2 domain concentrations used in this study were <0.1 nM; made in house; host or cells: HEK293 (transient transfection; unpurified extract)

SOCS7 = biological target: T8, SOCS7 (Homo sapiens, UniProt O14512); conditions: for remaining activity at 10 µM: read-out: percent of DMSO vehicle control
T8 construct: made in house; host or cells: HEK293 (transient transfection), unpurified extract
T8 sequence (O14512 1-581): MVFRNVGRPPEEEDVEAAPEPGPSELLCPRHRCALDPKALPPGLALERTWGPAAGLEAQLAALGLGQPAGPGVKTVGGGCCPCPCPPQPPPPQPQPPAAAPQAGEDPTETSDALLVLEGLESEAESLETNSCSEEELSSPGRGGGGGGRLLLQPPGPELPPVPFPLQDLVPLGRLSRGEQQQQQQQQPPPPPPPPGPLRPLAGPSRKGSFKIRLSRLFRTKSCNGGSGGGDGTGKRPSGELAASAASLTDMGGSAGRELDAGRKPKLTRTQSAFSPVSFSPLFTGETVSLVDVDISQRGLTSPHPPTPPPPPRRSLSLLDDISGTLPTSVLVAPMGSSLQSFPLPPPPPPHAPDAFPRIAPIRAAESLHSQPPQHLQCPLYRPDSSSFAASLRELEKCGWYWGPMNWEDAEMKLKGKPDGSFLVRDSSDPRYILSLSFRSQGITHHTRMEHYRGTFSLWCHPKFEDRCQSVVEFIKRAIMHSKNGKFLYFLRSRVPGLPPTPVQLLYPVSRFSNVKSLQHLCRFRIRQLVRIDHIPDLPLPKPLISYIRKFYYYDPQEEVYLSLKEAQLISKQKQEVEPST

RASA1(SH2dom.C-term.) = biological target: T9, RASA1(SH2dom.C-term.) (Homo sapiens, UniProt P20936); conditions: read-out: percent of DMSO vehicle control
T9 construct: SH2dom.C-term. denotes SH2 domain closest to C-terminus of protein; made in house; host or cells: HEK293 (transient transfection, unpurified extract)
T9 sequence (P20936 351-441 limits assumed): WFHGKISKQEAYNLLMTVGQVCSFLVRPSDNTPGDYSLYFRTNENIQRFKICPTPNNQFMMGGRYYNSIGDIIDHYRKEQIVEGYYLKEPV

MIST = biological target: T10, MIST (Homo sapiens, UniProt Q7Z7G1); conditions: read-out: percent of DMSO vehicle control; for remaining activity at 10 µM: primary screen
T10 construct: the DNA-tagged SH2 domain concentrations used in this study were <0.1 nM; made in house; host or cells: HEK293 (transient transfection, unpurified extract)
T10 sequence (Q7Z7G1 309-419 limits assumed): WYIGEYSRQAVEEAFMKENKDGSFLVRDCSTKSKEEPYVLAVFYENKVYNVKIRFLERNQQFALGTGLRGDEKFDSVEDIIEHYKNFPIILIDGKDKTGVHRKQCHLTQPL

STAP1 = biological target: T11, STAP1 (Homo sapiens, UniProt Q9ULZ2); conditions: read-out: percent of DMSO vehicle control
T11 construct: made in house; host or cells: HEK293 (transient transfection), unpurified extract
T11 sequence (Q9ULZ2 1-295): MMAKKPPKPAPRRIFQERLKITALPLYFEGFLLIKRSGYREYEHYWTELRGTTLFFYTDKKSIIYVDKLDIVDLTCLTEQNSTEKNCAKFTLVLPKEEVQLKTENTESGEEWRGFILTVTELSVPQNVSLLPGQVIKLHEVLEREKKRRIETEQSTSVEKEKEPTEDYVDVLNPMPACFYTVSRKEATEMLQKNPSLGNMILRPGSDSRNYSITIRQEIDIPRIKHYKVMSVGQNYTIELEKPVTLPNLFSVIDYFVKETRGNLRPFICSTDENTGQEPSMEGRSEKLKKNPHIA

PIK3R1(SH2dom.C-term.) = biological target: T12, PIK3R1(SH2dom.C-term.) (Homo sapiens, UniProt P27986); conditions: for remaining activity at 10 µM: read-out: percent of DMSO vehicle control; for Kd: dose-response, read-out: KD
T12 construct: SH2dom.C-term. denotes SH2 domain closest to C-terminus of protein; made in house; host or cells: HEK293 (transient transfection, unpurified extract)
T12 sequence (P27986 624-718 limits assumed): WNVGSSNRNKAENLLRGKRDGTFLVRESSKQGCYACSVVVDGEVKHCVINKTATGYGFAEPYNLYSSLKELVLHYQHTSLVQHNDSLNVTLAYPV

T7 sequence (P51451 124-220 limits assumed): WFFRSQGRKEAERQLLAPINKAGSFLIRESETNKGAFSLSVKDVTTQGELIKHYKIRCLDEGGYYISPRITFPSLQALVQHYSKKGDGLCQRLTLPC
T1 sequence (P46109 14-102 limits assumed): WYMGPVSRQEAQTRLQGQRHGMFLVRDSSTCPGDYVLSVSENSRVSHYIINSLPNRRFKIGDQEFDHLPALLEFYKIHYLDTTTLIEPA

Compound | percent of DMSO vehicle control at 10 µM (CRKL) | remaining activity at 10 µM (PIK3R3(SH2dom.N-term.)) | remaining activity at 10 µM (SOCS6) | remaining activity at 10 µM (SOCS2) | remaining activity at 10 µM (GRB14) | percent of DMSO vehicle control at 10 µM (ABL2) | remaining activity at 10 µM (BLK) | remaining activity at 10 µM (SOCS7) | remaining activity at 10 µM (RASA1(SH2dom.C-term.)) | percent of DMSO vehicle control at 10 µM (MIST) | remaining activity at 10 µM (STAP1) | remaining activity at 10 µM (PIK3R1(SH2dom.C-term.)) | remaining activity at 10 µM (CRKL) | remaining activity at 10 µM (PIK3R3(SH2dom.N-term.); primary screen, 10 μM) | remaining activity at 10 µM (SOCS6; primary screen, 10 μM) | Kd (SOCS2) | remaining activity at 10 µM (SOCS2; primary screen, 10 μM) | remaining activity at 10 µM (GRB14; primary screen, 10 μM) | remaining activity at 10 µM (ABL2) | remaining activity at 10 µM (BLK; primary screen, 10 μM) | also measured
NC(=O)CC[C@H](NC(=O)[C@@H]1CC[C@@H]2CCN(C(=O)CCCCCC#Cc3cccc4c3CN(C3CCC(=O)NC3=O)C4=O)C[C@H](NC(=O)c3cc4cc(C(F)(F)P(=O)(O)O)ccc4[nH]3)C(=O)N21)C(=O)NC(c1ccccc1)c1ccccc1 (stereo partly drawn) [SD-36] | 119% | 111 ± 7.3% | 57.2 ± 3.4% | 98.5 ± 5.4% | 43.2 ± 2.9% | 126% | 70.6 ± 5.9% | 271% | 86.6 ± 9.6% | 104 ± 8.6% | 79.9 ± 5.8% | 94.6 ± 6.5% |  |  |  |  |  |  |  |  | 
CC(=O)N1CC[C@H]2CC[C@@H](C(=O)N[C@@H](CCC(N)=O)C(=O)NC(c3ccccc3)c3ccccc3)N2C(=O)[C@@H](NC(=O)c2cc3cc(C(F)(F)P(=O)(O)O)ccc3[nH]2)C1 [SI-109] | 125% | 142% | 91.9 ± 7.4% | 142% | 110% | 122% | 105% | 124% | 118% | 104% | 104% | 128% |  |  |  |  |  |  |  |  | 
C/C(=C\C(=O)N[C@H](C(=O)N1CCC[C@H]1C(=O)N(c1ccccc1)c1ccc(I)cc1)C(C)(C)C)c1ccc(OP(=O)(O)O)cc1 [STAT6-IN-1] |  |  |  |  |  |  |  |  |  |  |  |  | 42.4 ± 0.9% | 48.3 ± 1.7% | 44.1 ± 2.1% | 1.5 ± 0.87 µM | 0% | 24.5 ± 4% | 98.1 ± 4.2% | 49.1 ± 3.4% | Kd (GRB14; dose-response, read-out: KD): 3.5 ± 0.42 µM; KD (SOCS7; dose-response): No Hit; remaining activity at 10 µM (SOCS7; primary screen, 10 μM): 34.6 ± 0.1%; remaining activity at 10 µM (RASA1(SH2dom.C-term.); primary screen, 10 μM): 76.6 ± 7.8%; remaining activity at 10 µM (MIST): 88.7 ± 5.9%; remaining activity at 10 µM (STAP1; primary screen, 10 μM): 65.6 ± 5.1%; Kd (PIK3R1(SH2dom.C-term.)): 3.4 ± 1.1 µM; remaining activity at 10 µM (PIK3R1(SH2dom.C-term.); primary screen, 10 μM): 12.3 ± 0.1%
CC(C)(C)[C@H](NC(=O)/C=C/c1ccc(OP(=O)(O)O)cc1)C(=O)N1CCC[C@H]1C(=O)N(c1ccccc1)c1ccc(I)cc1 [STAT6-IN-3] |  |  |  |  |  |  |  |  |  |  |  |  | 102 ± 19.9% | 85.8 ± 16.7% | 90.2 ± 12.1% | 1.01 ± 0.013 µM | 7.9 ± 50.6% | 79.3 ± 7.7% | 108 ± 3.5% | 67.6 ± 11% | remaining activity at 10 µM (SOCS7; primary screen, 10 μM): 50.9 ± 16.4%; remaining activity at 10 µM (RASA1(SH2dom.C-term.); primary screen, 10 μM): 123 ± 14.3%; remaining activity at 10 µM (MIST): 102 ± 8.1%; remaining activity at 10 µM (STAP1; primary screen, 10 μM): 76.9 ± 9.2%; Kd (PIK3R1(SH2dom.C-term.)): 3 ± 0.73 µM; remaining activity at 10 µM (PIK3R1(SH2dom.C-term.); primary screen, 10 μM): 32.6 ± 4.4%

Source: publication PMC12951562, “SH2scan: Mapping SH2 Domain-Ligand Binding Selectivity for Inhibitors and Degraders” (Journal of Medicinal Chemistry, 2026)
